From patent US6468980B1, “Methods and compositions for potentiating cancer chemotherapeutic agents” (Oxycal Laboratories, Inc., priority 2000, dated 2002)

Test system: SK-Hep-1, a liver adenocarcinoma (hepatoma) cells
Assay: BrdU cell proliferation ELISA, adriamycin plus ascorbate adjuvant, hepatoma cells
Assay type: cell-based, human
Details: for suppression of hepatoma proliferation, ADR plus adjuvant compared with ADR alone: adjuvant 0.5 mM AA equivalents, one application of ADR (0.003-0.3 micromolar), two applications of adjuvant, FIG. 1
Excerpt: Calcium ascorbate (CA), calcium threonate (CT), 4-hydroxy-5-methyl-3(2H)-furanone (FR) and Ester-C (EC) are obtained from Inter-Cal Corporation, Prescott, Ariz., USA. Tissue culture grade Ascorbic acid (AA) is from Sigma Chemical Company, St. Louis, Mo., USA. The composition of calcium ascorbate (calcium di-(L-ascorbate) dihydrate) is made by sequentially dissolving individual components in sterile water to obtain master-stock solutions of equal strength (1% w/v). Aqueous solution of calcium ascorbate plus calcium threonate plus 4-hydroxy-5-methyl-3(2H)-furanone (CA/CT/FR) is prepared at ratio of 85/7.5/7.5. For comparative analysis, stock solutions containing identical ascorbic acid (AA) equivalents are used. All master stocks are stored at room temperature during the course of these procedures. From these, 10× strength working stocks are prepared by serial dilution on the day of use and are applied to cells in microtiter plates as described below.
Adriamycin (doxorubicin) is obtained from Sigma Chemical Company (St. Louis, Mo.). Stock solutions are made by dissolving adriamycin (ADR) in sterile water and DTIC in water or dilute acetic acid solution (0.01N). Stocks are stored frozen at −10 C and thawed prior to use. Serial dilutions are made in sterile water to obtain 10× strength solutions and […] of this is applied to cells at the time of treatment.
Target human tumor-derived or normal lines consist of SK-Hep-1, a liver adenocarcinoma ([…]) and Malme-3M, a malignant melanoma. All seed cultures are obtained from ATCC, Mannassas, Va., USA and are propagated/maintained in serum-containing growth medium in a humidified incubator of 5% CO2/95% air. SH-Hep-1 cells are grown in Eagle's minimum essential medium (EMEM) in Earle's salts plus non-essential amino acids supplemented with 10% FBS plus antibiotics and Malme-3M cells are cultured in McCoy's medium supplemented with 15% fetal bovine serum (FBS) plus antibiotics.
For treatment, exponentially growing cells are seeded at a density of 1×10^4 cells per well of 96-well microtiter plate in 0.1-0.2 ml of growth medium. After overnight cell attachment at 37 C, duplicate wells are exposed to various treatments by direct application of one-tenth volume of 10× strength solution. For treatments involving chemotherapeutic agent, one-tenth volume of serial dilutions of adriamycin (0.0006-3.0 micromolar) are applied to wells followed by application of ascorbate-containing composition (adjuvant) or sterile water (control). The adjuvant treatment is repeated every other day or on the third day (as applicable) without change of growth medium. Untreated controls receive an equivalent amount of sterile water. After 2-3 treatments with adjuvant, cells are labeled with BudR as described below. (In some experiments, wells are refed an equal volume of growth medium prior to additional of BudR. This gives a higher amount of BrdU incorporation into DNA relative to no refluiding).
For DNA labeling, the following procedure are adapted and modified from the Cell Proliferation ELISA, BudR (Colorimetric) assay of Roche Diagnostics, Indianapolis, IN, USA: Each treated well is exposed to one-tenth volume of 10× BrdU-containing medium and reincubated and 37 C overnight (15-20 hrs.). One set of control wells is exposed to medium only (no BudR) to obtain an absorbance-control (substrate only) blank for the assay. After the labeling period, the culture medium is removed and the cells are fixed and DNA denatured in one step by adding FixDenat (30 min at RT). Then, FixDenat is removed, the anti-BrdU-peroxidase reagent is added and incubation continues for 90 min at RT. After removal of the latter, the plate is washed 3 times, followed by addition of substrate solution. The plate is kept at RT until color development became sufficient for photometric detection (5-10 min). […]

calcium di-(L-ascorbate) dihydrate
suppression of hepatoma proliferation, ADR plus adjuvant compared with ADR alone (dihydrate): greater suppression of hepatoma proliferation than ADR alone
suppression of hepatoma proliferation, ADR plus adjuvant compared with ADR alone (listed as Calcium Ascorbate (CA), dihydrate): greater suppression of hepatoma proliferation than doxorubicin alone
suppression of hepatoma proliferation, ADR plus adjuvant compared with ADR alone (listed as Calcium ascorbate, dihydrate): more effective than ascorbic acid
effect of adjuvant on anti-proliferation activity of low doses of ADR in hepatoma cells (adjuvant at 0.033%, FIG. 4): consistently improve the anti-proliferation activity of low doses of ADR

O=C1O[C@H]([C@@H](O)CO)C(O)=C1O [AA, Ascorbic acid, reference compound]
suppression of hepatoma proliferation, ADR plus adjuvant compared with ADR alone: greater suppression of hepatoma proliferation than ADR alone
suppression of hepatoma proliferation, ADR plus adjuvant compared with ADR alone (listed as Ascorbic Acid (AA)): greater suppression of hepatoma proliferation than doxorubicin alone
